From ChEMBL document CHEMBL1201862, “PubChem BioAssay data set” (2004)
Activity calls are given as the source filed them.

Assays:
[1] = target: T1, Cytochrome P450 1A2 (Homo sapiens, UniProt P05177);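 also: PubChem cytochrome P450 panel assay, CYP1A2 panel member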
T1 sequence (P05177 whole entry): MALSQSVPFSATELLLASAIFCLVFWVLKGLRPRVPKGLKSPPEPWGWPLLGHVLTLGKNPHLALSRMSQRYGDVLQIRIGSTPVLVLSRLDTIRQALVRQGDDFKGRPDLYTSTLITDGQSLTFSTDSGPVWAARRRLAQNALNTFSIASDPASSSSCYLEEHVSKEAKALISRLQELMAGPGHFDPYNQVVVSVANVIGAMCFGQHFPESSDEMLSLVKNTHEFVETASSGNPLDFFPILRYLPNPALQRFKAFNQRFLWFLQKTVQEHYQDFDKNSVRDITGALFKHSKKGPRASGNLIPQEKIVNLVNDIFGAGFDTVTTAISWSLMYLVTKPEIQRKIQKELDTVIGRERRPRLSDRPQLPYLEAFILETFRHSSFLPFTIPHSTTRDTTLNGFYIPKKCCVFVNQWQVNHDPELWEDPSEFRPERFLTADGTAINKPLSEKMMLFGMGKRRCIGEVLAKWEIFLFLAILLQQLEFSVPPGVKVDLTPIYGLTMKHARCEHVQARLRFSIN

[2] = target: Tyrosine-protein kinase receptor TYRO3 (Homo sapiens, UniProt Q06418); type: functional;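 also: TYRO3 value obtained as one member of a kinome-wide profiling panel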
[3] = target: Activin receptor type-1 (Homo sapiens, UniProt Q04771); assay: Navigating the Kinome. Panel member name: ACVR1; type: functional
[4] = target: Fibroblast growth factor receptor 1 (Homo sapiens, UniProt P11362); type: functional
[5] = target: Casein kinase I isoform alpha (Homo sapiens, UniProt P48729); type: functional
[6] = target: Serine/threonine-protein kinase TAO1 (Homo sapiens, UniProt Q7L7X3); type: functional
[7] = target: Mitogen-activated protein kinase kinase kinase kinase 2 (Homo sapiens, UniProt Q12851); type: functional;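 also: measured as one member of a kinome-wide kinase panel, with MAP4K2 as the panel entry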
[8] = target: Activated CDC42 kinase 1 (Homo sapiens, UniProt Q07912); assay: Navigating the Kinome. Panel member name: ACK1; type: functional
[9] = target: T2, Serine/threonine-protein kinase Chk1 (Homo sapiens, UniProt O14757); type: functional;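 also: measured as one member of a kinome-wide kinase profiling panel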
T2 sequence (O14757 whole entry): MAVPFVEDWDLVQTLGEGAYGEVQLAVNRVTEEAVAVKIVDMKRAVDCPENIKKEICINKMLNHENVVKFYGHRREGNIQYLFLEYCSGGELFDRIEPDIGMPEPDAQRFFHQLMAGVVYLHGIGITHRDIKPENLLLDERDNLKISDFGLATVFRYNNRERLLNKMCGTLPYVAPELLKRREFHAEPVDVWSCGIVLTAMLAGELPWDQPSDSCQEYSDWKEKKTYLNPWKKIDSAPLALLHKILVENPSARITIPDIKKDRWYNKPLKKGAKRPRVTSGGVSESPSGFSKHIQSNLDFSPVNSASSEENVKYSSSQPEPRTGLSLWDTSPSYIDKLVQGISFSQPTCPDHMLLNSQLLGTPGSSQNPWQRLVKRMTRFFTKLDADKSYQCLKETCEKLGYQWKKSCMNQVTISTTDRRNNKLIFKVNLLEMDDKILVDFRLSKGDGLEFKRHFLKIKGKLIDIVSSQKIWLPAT

[10] = target: Vascular endothelial growth factor receptor 2 (Homo sapiens, UniProt P35968); type: functional
[11] = target: Cyclin-dependent kinase 8 (Homo sapiens, UniProt P49336); assay: Navigating the Kinome. Panel member name: CDK8; type: functional
[12] = target: Vascular endothelial growth factor receptor 1 (Homo sapiens, UniProt P17948); type: functional;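 also: measured within a kinome-wide profiling panel, FLT1 as the panel member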
[13] = target: Dual specificity protein kinase CLK4 (Homo sapiens, UniProt Q9HAZ1); type: functional
[14] = target: Misshapen-like kinase 1 (Homo sapiens, UniProt Q8N4C8); type: functional;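 also: kinome panel screen with MINK as the panel member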
[15] = target: Cyclin-dependent kinase 7 (Homo sapiens, UniProt P50613); type: functional;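 also: value comes from a kinome-wide kinase profiling panel in which CDK7 is one member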
[16] = target: Fibroblast growth factor receptor 3 (Homo sapiens, UniProt P22607); type: functional
[17] = target: Glycogen synthase kinase-3 beta (Homo sapiens, UniProt P49841); type: functional;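 also: value comes from a broad kinome profiling panel, with GSK3B as the panel member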
[18] = target: Dual specificity protein phosphatase 3 (Homo sapiens, UniProt P51452); assay: VHR1 phosphatase inhibitors, biochemical (AID 1878)
[19] = target: T3, Replicative DNA helicase DnaB (Mycobacterium tuberculosis, UniProt P9WMR3); assay: DnaB Intein secondary assay Measured in Biochemical System Using Plate Reader - 2047-04_Inhibitor_Dose_DryPowder_Activity. [Related pubchem assays (depositor defined):AID2223]
T3 sequence (P9WMR3 whole entry): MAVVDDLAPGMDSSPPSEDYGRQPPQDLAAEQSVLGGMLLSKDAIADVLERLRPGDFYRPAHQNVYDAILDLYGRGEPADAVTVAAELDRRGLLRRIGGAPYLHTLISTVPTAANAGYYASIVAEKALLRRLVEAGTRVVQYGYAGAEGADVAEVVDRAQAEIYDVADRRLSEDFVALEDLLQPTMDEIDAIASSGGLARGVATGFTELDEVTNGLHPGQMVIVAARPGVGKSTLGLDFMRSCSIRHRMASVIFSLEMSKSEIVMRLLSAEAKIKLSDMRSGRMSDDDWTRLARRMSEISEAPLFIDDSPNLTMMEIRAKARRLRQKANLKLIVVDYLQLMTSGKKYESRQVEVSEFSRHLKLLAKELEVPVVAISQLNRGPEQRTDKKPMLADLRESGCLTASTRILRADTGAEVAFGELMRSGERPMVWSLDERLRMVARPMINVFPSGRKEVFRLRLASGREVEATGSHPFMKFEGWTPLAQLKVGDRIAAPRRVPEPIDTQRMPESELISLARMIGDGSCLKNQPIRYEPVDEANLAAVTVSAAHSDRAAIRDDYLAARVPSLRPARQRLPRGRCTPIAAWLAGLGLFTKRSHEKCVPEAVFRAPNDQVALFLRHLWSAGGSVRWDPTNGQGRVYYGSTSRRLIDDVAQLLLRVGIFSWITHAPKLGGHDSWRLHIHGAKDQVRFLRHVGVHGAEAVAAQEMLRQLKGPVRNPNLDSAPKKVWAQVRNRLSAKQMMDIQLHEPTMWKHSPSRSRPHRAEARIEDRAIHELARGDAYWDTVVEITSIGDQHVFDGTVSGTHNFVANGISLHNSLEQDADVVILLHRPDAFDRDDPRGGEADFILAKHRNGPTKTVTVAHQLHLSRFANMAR

[20] = CMV-driven luciferase expression suppression in HEK293 – cell-based, luminescence, dry powder, counter-screen for Pax8 inhibitor project, dose response (AID 743020); type: functional

Chain of Fibroblast growth factor receptor 1 (P11362 whole entry, canonical isoform): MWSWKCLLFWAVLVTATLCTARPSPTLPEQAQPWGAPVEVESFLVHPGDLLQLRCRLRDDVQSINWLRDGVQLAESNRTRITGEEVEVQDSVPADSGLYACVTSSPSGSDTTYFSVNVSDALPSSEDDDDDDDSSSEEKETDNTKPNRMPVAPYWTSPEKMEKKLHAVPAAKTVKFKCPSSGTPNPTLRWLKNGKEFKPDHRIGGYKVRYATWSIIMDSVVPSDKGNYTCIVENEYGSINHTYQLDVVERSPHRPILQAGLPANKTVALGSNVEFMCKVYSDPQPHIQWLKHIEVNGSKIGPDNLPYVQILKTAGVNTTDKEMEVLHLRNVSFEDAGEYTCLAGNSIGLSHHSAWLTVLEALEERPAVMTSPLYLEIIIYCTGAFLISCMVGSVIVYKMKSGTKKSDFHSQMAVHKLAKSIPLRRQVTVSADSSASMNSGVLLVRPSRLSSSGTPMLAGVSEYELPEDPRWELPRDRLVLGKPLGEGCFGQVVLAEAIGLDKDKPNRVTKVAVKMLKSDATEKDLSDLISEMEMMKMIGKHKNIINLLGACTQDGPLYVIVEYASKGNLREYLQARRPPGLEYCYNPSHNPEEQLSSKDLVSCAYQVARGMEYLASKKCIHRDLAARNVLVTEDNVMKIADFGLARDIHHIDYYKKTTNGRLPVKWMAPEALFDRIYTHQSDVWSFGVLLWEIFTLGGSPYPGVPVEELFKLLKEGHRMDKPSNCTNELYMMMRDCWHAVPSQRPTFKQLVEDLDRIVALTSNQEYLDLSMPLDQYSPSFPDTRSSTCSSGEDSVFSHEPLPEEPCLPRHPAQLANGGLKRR
Chain of Mitogen-activated protein kinase kinase kinase kinase 2 (Q12851 whole entry): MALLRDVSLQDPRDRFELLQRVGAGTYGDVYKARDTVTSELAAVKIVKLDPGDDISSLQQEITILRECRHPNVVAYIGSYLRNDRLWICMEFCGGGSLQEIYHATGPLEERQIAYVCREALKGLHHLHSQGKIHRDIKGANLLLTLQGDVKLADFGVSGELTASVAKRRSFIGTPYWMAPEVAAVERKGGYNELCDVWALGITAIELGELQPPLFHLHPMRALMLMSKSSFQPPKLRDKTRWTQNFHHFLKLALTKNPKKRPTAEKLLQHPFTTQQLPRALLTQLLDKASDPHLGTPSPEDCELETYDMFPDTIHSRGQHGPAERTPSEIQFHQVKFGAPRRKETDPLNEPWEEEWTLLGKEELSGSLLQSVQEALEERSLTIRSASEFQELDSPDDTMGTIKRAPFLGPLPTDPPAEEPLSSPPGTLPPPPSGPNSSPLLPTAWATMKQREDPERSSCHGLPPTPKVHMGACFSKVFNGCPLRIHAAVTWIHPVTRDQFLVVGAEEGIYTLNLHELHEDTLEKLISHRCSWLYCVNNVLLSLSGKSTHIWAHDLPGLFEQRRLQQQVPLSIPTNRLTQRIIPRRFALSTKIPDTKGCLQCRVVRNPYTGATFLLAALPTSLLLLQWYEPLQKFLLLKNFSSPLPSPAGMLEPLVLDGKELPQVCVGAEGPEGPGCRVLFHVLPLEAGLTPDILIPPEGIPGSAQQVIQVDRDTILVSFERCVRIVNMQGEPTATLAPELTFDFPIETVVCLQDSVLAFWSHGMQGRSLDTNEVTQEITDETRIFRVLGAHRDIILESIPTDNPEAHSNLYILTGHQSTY
Chain of Tyrosine-protein kinase receptor TYRO3 (Q06418 whole entry): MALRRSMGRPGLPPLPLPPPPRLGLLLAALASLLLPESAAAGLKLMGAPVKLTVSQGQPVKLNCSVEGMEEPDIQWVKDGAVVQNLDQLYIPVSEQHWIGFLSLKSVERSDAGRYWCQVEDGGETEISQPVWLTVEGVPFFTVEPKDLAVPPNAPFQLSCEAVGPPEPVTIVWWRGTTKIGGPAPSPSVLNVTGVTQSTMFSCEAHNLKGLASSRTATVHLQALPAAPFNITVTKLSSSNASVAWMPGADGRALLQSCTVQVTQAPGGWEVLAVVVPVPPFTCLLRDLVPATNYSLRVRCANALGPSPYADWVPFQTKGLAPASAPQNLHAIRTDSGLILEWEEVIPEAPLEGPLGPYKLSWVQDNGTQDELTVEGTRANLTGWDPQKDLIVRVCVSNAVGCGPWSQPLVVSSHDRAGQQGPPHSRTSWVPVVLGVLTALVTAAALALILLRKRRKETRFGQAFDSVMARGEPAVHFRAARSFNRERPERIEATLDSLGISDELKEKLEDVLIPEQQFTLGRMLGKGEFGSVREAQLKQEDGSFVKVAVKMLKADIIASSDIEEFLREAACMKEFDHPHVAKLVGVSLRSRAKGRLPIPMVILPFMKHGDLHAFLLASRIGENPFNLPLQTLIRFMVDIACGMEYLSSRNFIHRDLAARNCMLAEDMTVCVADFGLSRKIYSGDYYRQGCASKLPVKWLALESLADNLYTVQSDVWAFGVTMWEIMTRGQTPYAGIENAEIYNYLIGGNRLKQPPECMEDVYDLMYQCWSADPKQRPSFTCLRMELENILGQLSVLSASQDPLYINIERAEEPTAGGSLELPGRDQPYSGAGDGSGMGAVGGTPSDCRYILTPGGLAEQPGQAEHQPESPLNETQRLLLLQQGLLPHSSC
Chain of Casein kinase I isoform alpha (P48729 whole entry, canonical isoform): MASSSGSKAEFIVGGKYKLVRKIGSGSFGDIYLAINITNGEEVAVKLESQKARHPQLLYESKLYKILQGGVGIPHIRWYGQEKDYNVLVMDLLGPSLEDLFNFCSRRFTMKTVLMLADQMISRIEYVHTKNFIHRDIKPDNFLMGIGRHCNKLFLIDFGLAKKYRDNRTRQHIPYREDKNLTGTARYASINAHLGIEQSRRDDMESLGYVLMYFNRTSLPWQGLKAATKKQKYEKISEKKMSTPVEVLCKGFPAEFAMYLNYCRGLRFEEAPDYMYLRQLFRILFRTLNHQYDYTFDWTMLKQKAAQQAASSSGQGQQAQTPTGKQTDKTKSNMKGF
Chain of Activated CDC42 kinase 1 (Q07912 whole entry): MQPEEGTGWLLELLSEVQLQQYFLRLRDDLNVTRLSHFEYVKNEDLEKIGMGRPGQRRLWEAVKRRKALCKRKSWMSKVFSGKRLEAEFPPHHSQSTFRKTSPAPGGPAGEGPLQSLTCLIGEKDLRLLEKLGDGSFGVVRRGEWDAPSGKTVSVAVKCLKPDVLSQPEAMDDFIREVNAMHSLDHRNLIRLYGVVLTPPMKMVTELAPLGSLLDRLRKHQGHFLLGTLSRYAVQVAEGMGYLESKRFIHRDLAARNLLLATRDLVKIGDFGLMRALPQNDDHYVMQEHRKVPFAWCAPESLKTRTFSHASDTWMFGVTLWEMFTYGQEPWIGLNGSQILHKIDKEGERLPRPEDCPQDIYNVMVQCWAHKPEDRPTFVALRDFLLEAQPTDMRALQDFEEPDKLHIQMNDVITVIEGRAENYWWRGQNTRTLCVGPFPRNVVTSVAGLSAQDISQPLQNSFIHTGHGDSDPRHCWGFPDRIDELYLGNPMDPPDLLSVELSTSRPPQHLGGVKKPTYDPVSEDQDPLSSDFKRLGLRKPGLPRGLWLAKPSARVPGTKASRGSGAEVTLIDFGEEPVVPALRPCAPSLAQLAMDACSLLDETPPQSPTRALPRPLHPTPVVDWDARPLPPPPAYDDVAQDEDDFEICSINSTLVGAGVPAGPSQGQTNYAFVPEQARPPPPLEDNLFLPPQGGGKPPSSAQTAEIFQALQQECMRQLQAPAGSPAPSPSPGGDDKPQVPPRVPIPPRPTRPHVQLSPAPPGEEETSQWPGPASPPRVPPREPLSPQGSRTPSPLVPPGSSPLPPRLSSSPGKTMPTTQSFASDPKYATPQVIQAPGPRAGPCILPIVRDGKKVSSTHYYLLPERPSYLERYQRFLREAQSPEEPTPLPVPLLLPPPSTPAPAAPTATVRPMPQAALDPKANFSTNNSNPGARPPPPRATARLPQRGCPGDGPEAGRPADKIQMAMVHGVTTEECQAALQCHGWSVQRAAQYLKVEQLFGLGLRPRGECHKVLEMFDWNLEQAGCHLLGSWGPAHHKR
Chain of Dual specificity protein kinase CLK4 (Q9HAZ1 whole entry): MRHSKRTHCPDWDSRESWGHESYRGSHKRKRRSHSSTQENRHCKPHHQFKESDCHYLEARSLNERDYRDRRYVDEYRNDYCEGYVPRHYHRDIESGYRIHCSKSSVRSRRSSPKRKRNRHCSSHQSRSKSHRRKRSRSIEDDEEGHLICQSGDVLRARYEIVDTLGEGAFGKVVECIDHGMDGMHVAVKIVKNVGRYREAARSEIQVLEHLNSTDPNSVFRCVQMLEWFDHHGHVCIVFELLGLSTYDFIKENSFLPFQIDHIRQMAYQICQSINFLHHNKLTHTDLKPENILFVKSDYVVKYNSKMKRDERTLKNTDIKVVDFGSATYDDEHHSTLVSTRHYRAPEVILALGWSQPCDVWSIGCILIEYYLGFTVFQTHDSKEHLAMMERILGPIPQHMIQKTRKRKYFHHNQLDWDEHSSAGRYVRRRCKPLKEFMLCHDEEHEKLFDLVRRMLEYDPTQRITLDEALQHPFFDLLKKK
Chain of Cyclin-dependent kinase 8 (P49336 whole entry): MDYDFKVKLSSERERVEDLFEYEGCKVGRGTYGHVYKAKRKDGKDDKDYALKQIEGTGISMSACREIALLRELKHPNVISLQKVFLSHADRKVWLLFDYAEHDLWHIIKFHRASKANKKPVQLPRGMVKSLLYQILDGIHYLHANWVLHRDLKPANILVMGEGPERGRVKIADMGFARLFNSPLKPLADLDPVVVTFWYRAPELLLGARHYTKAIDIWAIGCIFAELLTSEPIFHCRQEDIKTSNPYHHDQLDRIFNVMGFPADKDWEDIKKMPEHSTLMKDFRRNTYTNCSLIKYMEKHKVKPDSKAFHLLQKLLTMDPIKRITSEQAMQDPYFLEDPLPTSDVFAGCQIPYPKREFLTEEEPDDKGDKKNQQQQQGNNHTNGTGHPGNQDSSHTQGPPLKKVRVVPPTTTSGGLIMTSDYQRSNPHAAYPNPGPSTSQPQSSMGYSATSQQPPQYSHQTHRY
Chain of Dual specificity protein phosphatase 3 (P51452 whole entry): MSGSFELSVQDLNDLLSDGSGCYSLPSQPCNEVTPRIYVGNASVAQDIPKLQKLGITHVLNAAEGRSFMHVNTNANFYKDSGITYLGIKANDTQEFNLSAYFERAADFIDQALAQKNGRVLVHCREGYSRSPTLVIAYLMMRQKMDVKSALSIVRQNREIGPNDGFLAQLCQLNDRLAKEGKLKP

Compound	AC50 [1]	Ki [2]	Ki [3]	Ki [4]	Ki [5]	Ki [6]	Ki [7]	Ki [8]	Ki [9]	Ki [10]	Ki [11]	Ki [12]	Ki [13]	Ki [14]	Ki [15]	Ki [16]	Ki [17]	IC50 [18]	AC50 [19]	AC50 [20]
CC(C)c1ccc(-c2nnn(CCC(=O)O)n2)cc1	12.6 µM (inconclusive)																			
O=c1[nH][nH]c2ccc(Br)cc12		10 µM (active)	7.94 µM (active)	31.6 µM (active)	7.94 µM (active)	79.4 µM (active)	31.6 µM (active)	31.6 µM (active)	2.51 µM (active)	63.1 µM (active)	10 µM (active)	7.94 µM (active)	1.26 µM (active)							
COc1cc2c(cc1Nc1nc(Nc3cccc(F)c3C(N)=O)c3cc[nH]c3n1)N(C(=O)CN(C)C)CC2		> 3.16 µM (inactive)	> 3.98 µM (inactive)	> 3.98 µM (inactive)	1.26 µM (active)	2 µM (active)	> 2.51 µM (inactive)	2 µM (active)	2.51 µM (active)	> 2.51 µM (inactive)	> 3.98 µM (inactive)	> 3.98 µM (inactive)	0.02 µM (active)	3.98 µM (active)	2.51 µM (active)	> 2 µM (inactive)	> 3.98 µM (inactive)			
CCn1nc(/C=C/c2ccccc2)nc2c(=O)n(C)c(=O)nc1-2																		106 µM (inactive)	0.184 µM (active)	< 0.704 µM (active)
